Data published in publication PMC11345841, “Exploring 2-Sulfonylpyrimidine Warheads as Acrylamide Surrogates for Targeted Covalent Inhibition: A BTK Story” (Journal of Medicinal Chemistry, 2024).
Read-outs that look alike come from different tables or passages of the source.

Experiments:
Assay in all cases: KINOMEscan ScanTK
Assay type in all cases: binding
[1] = molecular target: T1, ABL1(E255K)-phosphorylated (Homo sapiens, UniProt P00519, E255K)
T1 construct: purchased Eurofins DiscoverX KINOMEscan (scanTK)

ABL1-phosphorylated = molecular target: T2, ABL1-phosphorylated (Homo sapiens, UniProt P00519)
T2 construct: purchased Eurofins DiscoverX KINOMEscan (scanTK)

ALK(C1156Y) = molecular target: T3, ALK(C1156Y) (Homo sapiens, UniProt Q9UM73, C1156Y)
T3 construct: purchased Eurofins DiscoverX KINOMEscan (scanTK)

BRK = molecular target: T4, BRK (Homo sapiens, UniProt Q13882)
T4 construct: purchased Eurofins DiscoverX KINOMEscan (scanTK)

CSF1R = molecular target: T5, CSF1R (Homo sapiens, UniProt P07333)
T5 construct: purchased Eurofins DiscoverX KINOMEscan (scanTK)

EGFR(G719S) = molecular target: T6, EGFR(G719S) (Homo sapiens, UniProt P00533, G719S)
T6 construct: purchased Eurofins DiscoverX KINOMEscan (scanTK)

[2] = molecular target: T7, EGFR(L747-E749del, A750P) (Homo sapiens, UniProt P00533, A750P/DEL747-749)
T7 construct: purchased Eurofins DiscoverX KINOMEscan (scanTK)

EPHB1 = molecular target: T8, EPHB1 (Homo sapiens, UniProt P54762); settings: EPHB1
T8 construct: purchased Eurofins DiscoverX KINOMEscan (scanTK)
T8 sequence (P54762 18-984): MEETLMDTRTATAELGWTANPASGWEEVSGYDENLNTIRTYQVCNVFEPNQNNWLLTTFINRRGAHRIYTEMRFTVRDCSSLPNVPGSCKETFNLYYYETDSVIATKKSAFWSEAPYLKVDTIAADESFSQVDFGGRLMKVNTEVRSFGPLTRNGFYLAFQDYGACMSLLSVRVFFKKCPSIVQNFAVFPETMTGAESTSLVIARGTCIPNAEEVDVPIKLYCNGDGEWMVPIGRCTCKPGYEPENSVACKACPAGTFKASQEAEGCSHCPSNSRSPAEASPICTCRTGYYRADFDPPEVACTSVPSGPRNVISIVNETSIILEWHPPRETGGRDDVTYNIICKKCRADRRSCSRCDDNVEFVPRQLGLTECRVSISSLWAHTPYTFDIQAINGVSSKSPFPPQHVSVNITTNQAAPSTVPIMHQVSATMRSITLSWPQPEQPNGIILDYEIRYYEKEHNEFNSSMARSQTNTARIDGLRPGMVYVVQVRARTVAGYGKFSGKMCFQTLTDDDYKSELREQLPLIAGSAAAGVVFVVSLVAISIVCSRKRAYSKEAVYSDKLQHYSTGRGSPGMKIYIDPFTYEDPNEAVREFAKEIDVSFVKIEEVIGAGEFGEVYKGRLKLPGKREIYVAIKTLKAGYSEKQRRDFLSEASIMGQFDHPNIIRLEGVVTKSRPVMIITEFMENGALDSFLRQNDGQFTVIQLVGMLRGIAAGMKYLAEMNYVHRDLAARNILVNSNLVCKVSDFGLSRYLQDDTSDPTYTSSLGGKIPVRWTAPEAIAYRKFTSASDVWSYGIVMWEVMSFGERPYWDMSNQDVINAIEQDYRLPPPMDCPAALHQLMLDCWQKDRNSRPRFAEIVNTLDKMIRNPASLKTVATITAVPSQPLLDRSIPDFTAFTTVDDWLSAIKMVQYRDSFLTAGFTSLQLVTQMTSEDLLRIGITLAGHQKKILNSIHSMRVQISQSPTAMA

FGFR2 = molecular target: T9, FGFR2 (Homo sapiens, UniProt P21802)
T9 construct: purchased Eurofins DiscoverX KINOMEscan (scanTK)

FYN = molecular target: T10, FYN (Homo sapiens, UniProt P06241)
T10 construct: purchased Eurofins DiscoverX KINOMEscan (scanTK)

[3] = molecular target: T11, JAK2(JH1domain-catalytic) (Homo sapiens, UniProt O60674)
T11 construct: JAK2(JH1domain-catalytic); purchased Eurofins DiscoverX KINOMEscan (scanTK)

KIT(A829P) = molecular target: T12, KIT(A829P) (Homo sapiens, UniProt P10721, A829P)
T12 construct: purchased Eurofins DiscoverX KINOMEscan (scanTK)

LTK = molecular target: T13, LTK (Homo sapiens, UniProt P29376)
T13 construct: purchased Eurofins DiscoverX KINOMEscan (scanTK)

PDGFRB = molecular target: T14, PDGFRB (Homo sapiens, UniProt P09619)
T14 construct: purchased Eurofins DiscoverX KINOMEscan (scanTK)

TIE2 = molecular target: T15, TIE2 (Homo sapiens, UniProt Q02763)
T15 construct: purchased Eurofins DiscoverX KINOMEscan (scanTK)

TRKA = molecular target: T16, TRKA (Homo sapiens, UniProt P04629); settings: TRKA
T16 construct: purchased Eurofins DiscoverX KINOMEscan (scanTK)

T2 sequence (P00519 whole entry): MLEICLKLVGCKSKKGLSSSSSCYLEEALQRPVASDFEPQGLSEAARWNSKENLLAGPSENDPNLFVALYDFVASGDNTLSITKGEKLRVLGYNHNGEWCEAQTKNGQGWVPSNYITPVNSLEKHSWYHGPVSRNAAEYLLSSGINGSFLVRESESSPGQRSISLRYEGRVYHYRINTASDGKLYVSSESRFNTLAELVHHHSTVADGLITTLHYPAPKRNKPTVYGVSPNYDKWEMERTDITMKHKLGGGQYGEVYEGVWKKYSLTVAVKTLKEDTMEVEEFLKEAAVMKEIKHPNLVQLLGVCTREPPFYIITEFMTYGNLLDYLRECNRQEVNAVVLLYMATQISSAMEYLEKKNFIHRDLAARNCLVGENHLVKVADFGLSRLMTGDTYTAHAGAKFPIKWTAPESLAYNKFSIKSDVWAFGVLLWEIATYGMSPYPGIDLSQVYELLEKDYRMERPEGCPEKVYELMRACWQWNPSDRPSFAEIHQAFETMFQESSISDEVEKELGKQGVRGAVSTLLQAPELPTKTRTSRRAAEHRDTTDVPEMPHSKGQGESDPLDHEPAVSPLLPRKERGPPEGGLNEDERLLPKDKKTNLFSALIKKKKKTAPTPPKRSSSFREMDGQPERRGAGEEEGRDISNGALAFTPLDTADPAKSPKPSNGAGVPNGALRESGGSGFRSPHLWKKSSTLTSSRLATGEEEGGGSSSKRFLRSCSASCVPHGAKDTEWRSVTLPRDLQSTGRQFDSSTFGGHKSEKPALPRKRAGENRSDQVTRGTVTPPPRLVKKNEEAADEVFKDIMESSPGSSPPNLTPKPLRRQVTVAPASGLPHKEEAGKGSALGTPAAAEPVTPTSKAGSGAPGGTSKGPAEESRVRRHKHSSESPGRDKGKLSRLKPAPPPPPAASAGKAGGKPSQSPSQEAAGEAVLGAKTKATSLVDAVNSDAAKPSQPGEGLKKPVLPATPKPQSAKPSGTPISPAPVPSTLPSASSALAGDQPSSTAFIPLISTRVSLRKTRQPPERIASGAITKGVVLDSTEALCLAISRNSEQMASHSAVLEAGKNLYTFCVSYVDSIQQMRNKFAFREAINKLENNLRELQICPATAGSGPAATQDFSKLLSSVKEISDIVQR
T6 sequence (P00533 25-1210 G719S): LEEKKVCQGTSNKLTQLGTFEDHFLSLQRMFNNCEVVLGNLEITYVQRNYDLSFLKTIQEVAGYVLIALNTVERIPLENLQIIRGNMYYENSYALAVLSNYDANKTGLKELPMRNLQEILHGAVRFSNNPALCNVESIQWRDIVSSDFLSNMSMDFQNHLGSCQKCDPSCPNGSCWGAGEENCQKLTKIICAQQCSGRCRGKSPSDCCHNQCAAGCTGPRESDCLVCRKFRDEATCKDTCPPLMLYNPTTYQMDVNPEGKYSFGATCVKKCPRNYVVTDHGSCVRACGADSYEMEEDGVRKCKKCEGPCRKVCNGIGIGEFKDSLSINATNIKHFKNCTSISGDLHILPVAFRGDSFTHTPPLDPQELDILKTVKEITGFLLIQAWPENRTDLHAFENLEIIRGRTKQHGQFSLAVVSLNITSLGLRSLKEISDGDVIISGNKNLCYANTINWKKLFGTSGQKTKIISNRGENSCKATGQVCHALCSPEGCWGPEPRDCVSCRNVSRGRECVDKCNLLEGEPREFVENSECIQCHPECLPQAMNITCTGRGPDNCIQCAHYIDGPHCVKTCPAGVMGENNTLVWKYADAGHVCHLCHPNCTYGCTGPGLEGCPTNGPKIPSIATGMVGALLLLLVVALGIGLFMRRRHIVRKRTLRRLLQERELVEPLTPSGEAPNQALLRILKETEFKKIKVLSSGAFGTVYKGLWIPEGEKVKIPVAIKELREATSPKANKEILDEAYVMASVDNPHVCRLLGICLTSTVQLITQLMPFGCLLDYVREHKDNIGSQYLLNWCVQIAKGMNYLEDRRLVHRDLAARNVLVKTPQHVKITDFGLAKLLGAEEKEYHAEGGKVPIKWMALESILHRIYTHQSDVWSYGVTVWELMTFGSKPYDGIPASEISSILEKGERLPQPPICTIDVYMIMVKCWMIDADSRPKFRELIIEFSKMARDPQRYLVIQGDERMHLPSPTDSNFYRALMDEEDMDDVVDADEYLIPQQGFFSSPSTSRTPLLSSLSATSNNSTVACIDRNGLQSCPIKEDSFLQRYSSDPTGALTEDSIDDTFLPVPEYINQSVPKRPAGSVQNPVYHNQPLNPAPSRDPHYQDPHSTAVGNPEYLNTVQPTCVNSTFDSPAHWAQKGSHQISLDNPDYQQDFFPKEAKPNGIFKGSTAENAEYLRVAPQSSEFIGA
T11 sequence (O60674 849-1132 limits assumed): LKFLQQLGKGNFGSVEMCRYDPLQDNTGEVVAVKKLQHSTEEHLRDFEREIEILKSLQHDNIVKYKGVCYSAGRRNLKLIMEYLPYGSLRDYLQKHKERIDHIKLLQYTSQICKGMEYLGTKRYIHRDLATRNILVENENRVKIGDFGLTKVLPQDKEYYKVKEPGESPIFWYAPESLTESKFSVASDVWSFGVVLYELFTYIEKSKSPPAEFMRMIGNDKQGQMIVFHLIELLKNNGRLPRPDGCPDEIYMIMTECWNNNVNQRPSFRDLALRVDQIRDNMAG
T10 sequence (P06241 whole entry): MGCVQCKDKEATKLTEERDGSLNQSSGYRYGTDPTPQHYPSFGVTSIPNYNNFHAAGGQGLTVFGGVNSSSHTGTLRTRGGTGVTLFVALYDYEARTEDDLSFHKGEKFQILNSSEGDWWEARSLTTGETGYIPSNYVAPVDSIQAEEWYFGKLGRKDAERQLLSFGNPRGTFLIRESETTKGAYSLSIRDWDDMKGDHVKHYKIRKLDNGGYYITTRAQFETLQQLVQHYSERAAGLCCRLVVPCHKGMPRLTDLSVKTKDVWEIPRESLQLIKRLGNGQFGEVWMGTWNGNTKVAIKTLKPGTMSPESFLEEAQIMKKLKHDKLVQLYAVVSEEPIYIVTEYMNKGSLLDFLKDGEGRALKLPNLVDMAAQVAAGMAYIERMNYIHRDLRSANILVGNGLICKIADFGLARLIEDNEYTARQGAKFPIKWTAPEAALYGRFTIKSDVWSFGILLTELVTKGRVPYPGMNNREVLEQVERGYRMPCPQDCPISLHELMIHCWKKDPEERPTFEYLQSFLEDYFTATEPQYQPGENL
T7 sequence (P00533 with tags, fused parts or gaps DEL747-749/A750P limits assumed): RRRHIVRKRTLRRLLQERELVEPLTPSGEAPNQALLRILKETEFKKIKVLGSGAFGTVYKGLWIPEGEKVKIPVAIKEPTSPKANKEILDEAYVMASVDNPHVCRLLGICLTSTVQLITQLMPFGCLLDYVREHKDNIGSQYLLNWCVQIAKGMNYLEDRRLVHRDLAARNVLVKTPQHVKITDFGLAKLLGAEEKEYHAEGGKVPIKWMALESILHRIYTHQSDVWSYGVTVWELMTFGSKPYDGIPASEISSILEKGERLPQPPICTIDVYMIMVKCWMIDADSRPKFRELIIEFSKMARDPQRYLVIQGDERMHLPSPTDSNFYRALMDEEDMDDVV
T9 sequence (P21802 22-821): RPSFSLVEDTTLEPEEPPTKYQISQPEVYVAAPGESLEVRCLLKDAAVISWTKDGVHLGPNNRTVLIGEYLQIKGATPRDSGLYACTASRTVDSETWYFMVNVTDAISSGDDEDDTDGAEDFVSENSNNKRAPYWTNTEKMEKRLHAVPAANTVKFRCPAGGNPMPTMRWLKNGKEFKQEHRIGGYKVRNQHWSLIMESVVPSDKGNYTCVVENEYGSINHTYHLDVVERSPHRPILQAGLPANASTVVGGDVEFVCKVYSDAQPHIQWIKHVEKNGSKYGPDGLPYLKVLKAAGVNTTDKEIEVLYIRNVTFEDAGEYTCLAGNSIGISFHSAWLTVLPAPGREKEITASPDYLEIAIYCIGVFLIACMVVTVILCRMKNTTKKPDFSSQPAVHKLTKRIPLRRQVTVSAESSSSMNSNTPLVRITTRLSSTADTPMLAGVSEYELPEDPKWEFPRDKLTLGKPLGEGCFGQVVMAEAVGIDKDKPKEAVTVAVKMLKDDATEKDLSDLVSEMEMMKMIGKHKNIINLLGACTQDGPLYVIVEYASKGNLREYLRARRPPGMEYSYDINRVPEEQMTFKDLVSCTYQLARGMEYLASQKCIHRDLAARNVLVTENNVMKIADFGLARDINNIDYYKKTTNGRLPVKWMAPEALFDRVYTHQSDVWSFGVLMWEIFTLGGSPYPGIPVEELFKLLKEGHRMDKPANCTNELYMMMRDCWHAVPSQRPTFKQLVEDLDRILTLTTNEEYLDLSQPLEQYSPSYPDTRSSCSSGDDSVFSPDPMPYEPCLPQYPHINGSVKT
T1 sequence (P00519 whole entry E255K): as the sequence (P00519 whole entry) above, with E255K counted along it
T4 sequence (Q13882 whole entry): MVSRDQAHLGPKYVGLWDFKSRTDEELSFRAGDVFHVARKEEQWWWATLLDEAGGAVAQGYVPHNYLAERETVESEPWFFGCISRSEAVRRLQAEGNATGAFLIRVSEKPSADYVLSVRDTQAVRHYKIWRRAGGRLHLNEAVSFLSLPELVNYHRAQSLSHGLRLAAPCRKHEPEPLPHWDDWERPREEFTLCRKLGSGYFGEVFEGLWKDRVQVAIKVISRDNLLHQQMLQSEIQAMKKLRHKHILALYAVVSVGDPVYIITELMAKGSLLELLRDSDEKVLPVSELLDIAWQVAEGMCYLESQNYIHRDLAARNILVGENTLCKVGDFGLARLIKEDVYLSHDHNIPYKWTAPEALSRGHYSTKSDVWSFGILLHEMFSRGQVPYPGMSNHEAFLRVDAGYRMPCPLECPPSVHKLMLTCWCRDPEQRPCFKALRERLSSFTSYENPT

CCOC(=O)c1cnc(S(C)(=O)=O)nc1N1CCC[C@@H](n2nc(-c3ccc(Oc4ccccc4)cc3)c3c(N)ncnc32)C1 [Compound 8c, Ethyl (R)-4-(3-(4-Amino-3-(4-phenoxyphenyl)-1H-pyrazolo[3,4-d]pyrimidin-1-yl)piperidin-1-yl)-2-(methylsulfonyl)pyrimidine-5-carboxylate]
difference in %Control from reference Ib at 1 µM ([1]; @1000nM, read-out: % difference (compound - Ib %Control)): 17% | remaining binding at 1 µM ([1]; @1000nM, read-out: %Control): 81% | remaining binding at 1 µM ([1]; read-out: %Control @1000nM): 81% | difference in %Control from compound Ib at 1 µM (ABL1-phosphorylated; @1000nM): -3% | remaining binding at 1 µM (ABL1-phosphorylated; @1000nM, read-out: %Control): 57% | remaining binding at 1 µM (ABL1-phosphorylated; read-out: %Control @1000nM): 57% | difference in %Control versus compound Ib at 1 µM (ALK(C1156Y); @1000nM): -8% | remaining binding at 1 µM (ALK(C1156Y); @1000nM, read-out: %Control): 90% | remaining binding at 1 µM (ALK(C1156Y); read-out: %Control @1000nM): 90% | difference in %Control relative to compound Ib at 1 µM (BRK; @1000nM): 52.7% | remaining binding at 1 µM (BRK; @1000nM, read-out: %Control): 54% | remaining binding at 1 µM (BRK; read-out: %Control @1000nM): 54% | difference in %Control versus compound Ib at 1 µM (CSF1R; @1000nM): 16% | remaining binding at 1 µM (CSF1R; @1000nM, read-out: %Control): 96% | remaining binding at 1 µM (CSF1R; read-out: %Control @1000nM): 96% | difference in %Control from compound Ib at 1 µM (EGFR(G719S); @1000nM): 93.4% | remaining binding at 1 µM (EGFR(G719S); @1000nM, read-out: %Control): 94% | remaining binding at 1 µM (EGFR(G719S); read-out: %Control @1000nM): 94% | difference in %Control versus compound Ib at 1 µM ([2]; @1000nM): 63.9% | remaining binding at 1 µM ([2]; @1000nM, read-out: %Control): 67% | remaining binding at 1 µM ([2]; read-out: %Control @1000nM): 67% | difference in % of control versus compound Ib at 1 µM (EPHB1; @1000nM): 1% | remaining binding at 1 µM (EPHB1; @1000nM, read-out: %Control): 91% | remaining binding at 1 µM (EPHB1; read-out: %Control @1000nM): 91% | difference in %Control vs compound Ib at 1 µM (FGFR2; @1000nM): 41% | remaining binding at 1 µM (FGFR2; @1000nM, read-out: %Control): 80% | remaining binding at 1 µM (FGFR2; read-out: %Control @1000nM): 80% | difference in % of control versus compound Ib at 1 µM (FYN; @1000nM): 30.4% | remaining binding at 1 µM (FYN; @1000nM, read-out: %Control): 40% | remaining binding at 1 µM (FYN; read-out: %Control @1000nM): 40% | difference in %Control vs compound Ib at 1 µM ([3]; @1000nM): -17% | remaining binding at 1 µM ([3]; @1000nM, read-out: %Control): 83% | remaining binding at 1 µM ([3]; read-out: %Control @1000nM): 83% | remaining binding at 1 µM (KIT(A829P); @1000nM, read-out: %Control): 73% | remaining binding at 1 µM (KIT(A829P); read-out: %Control @1000nM): 73% | remaining binding at 1 µM (LTK; @1000nM, read-out: %Control): 100% | remaining binding at 1 µM (LTK; read-out: %Control @1000nM): 100% | remaining binding at 1 µM (PDGFRB; @1000nM, read-out: %Control): 87% | remaining binding at 1 µM (PDGFRB; read-out: %Control @1000nM): 87% | remaining binding at 1 µM (TIE2; @1000nM, read-out: %Control): 90% | remaining binding at 1 µM (TIE2; read-out: %Control @1000nM): 90% | difference in % of control versus compound Ib at 1 µM (TRKA; @1000nM): 8% | remaining binding at 1 µM (TRKA; @1000nM, read-out: %Control): 93% | remaining binding at 1 µM (TRKA; read-out: %Control @1000nM): 93%
